Results published in PMC12098659 (Scientific Reports, 2025).

Molecular target: T1, α-glucosidase (Saccharomyces cerevisiae, UniProt P53341)
Assay: α-Glucosidase inhibition assay
Type: biochemical
Conditions: not given

T1 sequence (P53341 whole entry): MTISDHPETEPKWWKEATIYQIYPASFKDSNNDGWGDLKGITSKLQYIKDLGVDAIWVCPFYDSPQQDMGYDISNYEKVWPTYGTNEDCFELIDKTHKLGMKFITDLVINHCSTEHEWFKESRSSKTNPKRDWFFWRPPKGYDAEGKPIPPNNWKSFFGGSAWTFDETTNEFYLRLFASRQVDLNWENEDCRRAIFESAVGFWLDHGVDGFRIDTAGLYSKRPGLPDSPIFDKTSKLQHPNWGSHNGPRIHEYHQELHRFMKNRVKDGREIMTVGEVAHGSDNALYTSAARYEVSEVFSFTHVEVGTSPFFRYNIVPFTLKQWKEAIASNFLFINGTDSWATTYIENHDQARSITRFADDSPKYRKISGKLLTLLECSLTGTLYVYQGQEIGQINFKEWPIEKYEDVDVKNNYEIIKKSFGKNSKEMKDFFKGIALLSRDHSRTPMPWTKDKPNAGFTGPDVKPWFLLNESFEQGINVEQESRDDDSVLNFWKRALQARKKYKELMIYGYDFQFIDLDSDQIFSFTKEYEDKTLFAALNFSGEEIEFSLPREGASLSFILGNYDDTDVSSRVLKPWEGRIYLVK

| SMILES | IC50 |
| --- | --- |
| N#Cc1c(-c2ccccc2)c(N)c(-c2ccccc2)n2nc(-c3ccccc3)nc12 [Compound 15a, 6-Amino-2,5,7-triphenyl-^1,2,4triazolo[1,5-a]pyridine-8-carbonitrile] | 20.32 ± 0.11 µM |
| COc1ccc(-c2c(N)c(-c3ccccc3)c(C#N)c3nc(-c4ccccc4)nn23)cc1 [Compound 15b, 6-Amino-5-(4-methoxyphenyl)-2,7-diphenyl-^1,2,4triazolo[1,5-a]pyridine-8-carbonitrile] | 25.5 ± 0.23 µM |
| N#Cc1c(-c2ccccc2)c(N)c(-c2cccc(Cl)c2)n2nc(-c3ccccc3)nc12 [Compound 15d, 6-Amino-5-(3-chlorophenyl)-2,7-diphenyl-^1,2,4triazolo[1,5-a]pyridine-8-carbonitrile] | 45.54 ± 0.25 µM |
| N#Cc1c(-c2ccccc2)c(N)c(-c2ccccc2Cl)n2nc(-c3ccccc3)nc12 [Compound 15e, 6-Amino-5-(2-chlorophenyl)-2,7-diphenyl-^1,2,4triazolo[1,5-a]pyridine-8-carbonitrile] | 60.64 ± 0.18 µM |
| N#Cc1c(-c2ccccc2)c(N)c(-c2cccs2)n2nc(-c3ccccc3)nc12 [Compound 15g, 6-Amino-2,7-diphenyl-5-(thiophen-2-yl)-^1,2,4triazolo[1,5-a]pyridine-8-carbonitrile] | 45.73 ± 0.29 µM |
| COc1ccc(-c2c(N)c(-c3ccc(C)cc3)c(C#N)c3nc(-c4ccccc4)nn23)cc1 [Compound 15i, 6-Amino-5-(4-methoxyphenyl)-2-phenyl-7-(p-tolyl)-^1,2,4triazolo[1,5-a]pyridine-8-carbonitrile] | 8.43 ± 0.25 µM |
| Cc1ccc(-c2c(N)c(-c3ccc(Cl)cc3)n3nc(-c4ccccc4)nc3c2C#N)cc1 [Compound 15j, 6-Amino-5-(4-chlorophenyl)-2-phenyl-7-(p-tolyl)-^1,2,4triazolo[1,5-a]pyridine-8-carbonitrile] | 6.6 ± 0.09 µM |
| Cc1ccc(-c2c(N)c(-c3ccc(Br)cc3)n3nc(-c4ccccc4)nc3c2C#N)cc1 [Compound 15k, 6-Amino-5-(4-bromophenyl)-2-phenyl-7-(p-tolyl)-^1,2,4triazolo[1,5-a]pyridine-8-carbonitrile] | 29.89 ± 0.17 µM |
| Cc1ccc(-c2c(N)c(-c3cccs3)n3nc(-c4ccccc4)nc3c2C#N)cc1 [Compound 15l, 6-Amino-2-phenyl-5-(thiophen-2-yl)-7-(p-tolyl)-^1,2,4triazolo[1,5-a]pyridine-8-carbonitrile] | 21.49 ± 0.09 µM |
| COc1ccc(-c2c(N)c(-c3ccc(OC)cc3)n3nc(-c4ccccc4)nc3c2C#N)cc1 [Compound 15n, 6-Amino-5,7-bis(4-methoxyphenyl)-2-phenyl-^1,2,4triazolo[1,5-a]pyridine-8-carbonitrile] | 22.31 ± 0.08 µM |
| COc1ccc(-c2c(N)c(-c3ccc(Cl)cc3)n3nc(-c4ccccc4)nc3c2C#N)cc1 [Compound 15o, 6-Amino-5-(4-chlorophenyl)-7-(4-methoxyphenyl)-2-phenyl-^1,2,4triazolo[1,5-a]pyridine-8-carbonitrile] | 7.64 ± 0.13 µM |
| COc1ccc(-c2c(N)c(-c3cccs3)n3nc(-c4ccccc4)nc3c2C#N)cc1 [Compound 15p, 6-Amino-7-(4-methoxyphenyl)-2-phenyl-5-(thiophen-2-yl)-^1,2,4triazolo[1,5-a]pyridine-8-carbonitrile] | 36.33 ± 0.09 µM |
| COc1ccc(-c2c(N)c(-c3ccc(Cl)cc3)c(C#N)c3nc(-c4ccccc4)nn23)cc1 [Compound 15r, 6-Amino-7-(4-chlorophenyl)-5-(4-methoxyphenyl)-2-phenyl-^1,2,4triazolo[1,5-a]pyridine-8-carbonitrile] | 49.96 ± 0.11 µM |
| N#Cc1c(-c2ccc(Cl)cc2)c(N)c(-c2ccc(Cl)cc2)n2nc(-c3ccccc3)nc12 [Compound 15s, 6-Amino-5,7-bis(4-chlorophenyl)-2-phenyl-^1,2,4triazolo[1,5-a]pyridine-8-carbonitrile] | 31.49 ± 0.08 µM |
| N#Cc1c(-c2ccc(Cl)cc2)c(N)c(-c2cccs2)n2nc(-c3ccccc3)nc12 [Compound 15t, 6-Amino-7-(4-chlorophenyl)-2-phenyl-5-(thiophen-2-yl)-^1,2,4triazolo[1,5-a]pyridine-8-carbonitrile] | 75.63 ± 0.44 µM |

Other lines, results leading:

| IC50 | SMILES |
| --- | --- |
| 9.69 ± 0.09 µM | N#Cc1c(-c2ccccc2)c(N)c(-c2ccc(Cl)cc2)n2nc(-c3ccccc3)nc12 [Compound 15c, 6-Amino-5-(4-chlorophenyl)-2,7-diphenyl-^1,2,4triazolo[1,5-a]pyridine-8-carbonitrile] |
| 32 ± 0.32 µM | N#Cc1c(-c2ccccc2)c(N)c(-c2ccc(Br)cc2)n2nc(-c3ccccc3)nc12 [Compound 15f, 6-Amino-5-(4-bromophenyl)-2,7-diphenyl-^1,2,4triazolo[1,5-a]pyridine-8-carbonitrile] |
| 14.4 ± 0.43 µM | Cc1ccc(-c2c(N)c(-c3ccccc3)n3nc(-c4ccccc4)nc3c2C#N)cc1 [Compound 15h, 6-Amino-2,5-diphenyl-7-(p-tolyl)-^1,2,4triazolo[1,5-a]pyridine-8-carbonitrile] |
| 9.18 ± 0.12 µM | COc1ccc(-c2c(N)c(-c3ccccc3)n3nc(-c4ccccc4)nc3c2C#N)cc1 [Compound 15m, 6-Amino-7-(4-methoxyphenyl)-2,5-diphenyl-^1,2,4triazolo[1,5-a]pyridine-8-carbonitrile] |
| 38.18 ± 0.14 µM | N#Cc1c(-c2ccc(Cl)cc2)c(N)c(-c2ccccc2)n2nc(-c3ccccc3)nc12 [Compound 15q, 6-Amino-7-(4-chlorophenyl)-2,5-diphenyl-^1,2,4triazolo[1,5-a]pyridine-8-carbonitrile] |
| 14.8 ± 0.22 µM | COc1ccc(-c2nc3c(C#N)c(-c4ccccc4)c(N)c(-c4ccccc4)n3n2)cc1 [Compound 15u, 6-Amino-2-(4-methoxyphenyl)-5,7-diphenyl-^1,2,4triazolo[1,5-a]pyridine-8-carbonitrile] |
| 25.13 ± 0.24 µM | N#Cc1c(-c2ccccc2)c(N)c(-c2ccccc2)n2nc(-c3ccc(Cl)cc3)nc12 [Compound 15v, 6-Amino-2-(4-chlorophenyl)-5,7-diphenyl-^1,2,4triazolo[1,5-a]pyridine-8-carbonitrile] |

Tested on: α-amylase
Assay: not given
Conditions: 100 µM

| inhibition | SMILES |
| --- | --- |
| 50.1 ± 0.5% | C[C@H]1O[C@H](O[C@H]2[C@H](O)[C@@H](O)[C@@H](O[C@H]3[C@H](O)[C@@H](O)C(O)O[C@@H]3CO)O[C@@H]2CO)[C@H](O)[C@@H](O)[C@@H]1N[C@H]1C=C(CO)[C@@H](O)[C@H](O)[C@H]1O (some centres unmarked) [Acarbose] |

Molecular target: T1, α-glucosidase
Assay: Enzyme kinetic study
Type: biochemical
Conditions: not given

| Ki | SMILES |
| --- | --- |
| 6.6 µM | Cc1ccc(-c2c(N)c(-c3ccc(Cl)cc3)n3nc(-c4ccccc4)nc3c2C#N)cc1 [Compound 15j, 6-Amino-5-(4-chlorophenyl)-2-phenyl-7-(p-tolyl)-^1,2,4triazolo[1,5-a]pyridine-8-carbonitrile] |

Same assay, conditions: Lineweaver-Burk plot: Km increases, Vmax unchanged

| α-glucosidase inhibition mode | SMILES |
| --- | --- |
| competitive | Cc1ccc(-c2c(N)c(-c3ccc(Cl)cc3)n3nc(-c4ccccc4)nc3c2C#N)cc1 [Compound 15j, 6-Amino-5-(4-chlorophenyl)-2-phenyl-7-(p-tolyl)-^1,2,4triazolo[1,5-a]pyridine-8-carbonitrile] |

Same assay, conditions: enzyme treated with 6.6 µM compound 15j; untreated 62.5

| Maximum velocity (Vm) of the treated enzyme | SMILES |
| --- | --- |
| 62.5 (nmol min^− 1) | Cc1ccc(-c2c(N)c(-c3ccc(Cl)cc3)n3nc(-c4ccccc4)nc3c2C#N)cc1 [Compound 15j, 6-Amino-5-(4-chlorophenyl)-2-phenyl-7-(p-tolyl)-^1,2,4triazolo[1,5-a]pyridine-8-carbonitrile] |
